Assay results reported in patent US20170022171A1, “2,5-DISUBSTITUTED CYCLOPENTANECARBOXYLIC ACIDS AND THEIR USE” (Bayer Pharma Aktiengesellschaft, priority 2014, published 2017).

Key:
Assay type in all cases: biochemical
mouse MMP-8 = target: T1, mouse MMP-8 (Mus musculus, UniProt O70138); assay: In vitro mouse MMP-8 inhibition test
T1 construct: purchased R&D Systems 2904-MP
From the text: (§1) The MMP-mediated amidolytic cleavage of a suitable peptide substrate leads to an increase in fluorescent light here too. The signal intensity of the fluorescent light is directly proportional to the enzyme activity. The active concentration of a test compound at which half the enzyme is inhibited (50% signal intensity of the fluorescent light) is reported as the IC50 value.
(§2) Recombinant mouse MMP-8 (from R&D Systems, 2904-MP) is chemically activated in accordance with the manufacturer's instructions using APMA. 1 μl of the test compound to be analysed (as a solution in DMSO, suitable concentrations, for example, 1 nM to 30 μM) is pipetted into 24 μl of activated enzyme (final concentration, for example, 2 nM) in reaction buffer (50 mM Tris/HCl pH 7.5, 10 mM CaCl2, 150 mM NaCl, 0.05% Brij®-35) in a white 384-hole microtiter plate (MTP). The enzymatic reaction is started by adding the intramolecularly quenched Mca-Lys-Pro-Leu-Gly-Leu-Dpa(Dnp)-Ala-Arg-NH2 substrate (final concentration, for example, 5 μM; R&D Systems, ES-010), so as to result in a total test volume of 50 μl. The course of the MMP-8 reaction is measured by measuring the fluorescence intensity (excitation 320 nm, emission 410 nm) over a suitable period of time (for example over 120 min at a temperature of 32° C.).

mouse MMP-3 = target: T2, mouse MMP-3 (Mus musculus, UniProt P28862); assay: In vitro mouse MMP-3 inhibition test
T2 construct: purchased R&D Systems 548-MP
From the text: as §1
as §2, with “mouse MMP-3” for “mouse MMP-8”, “Systems, 548-MP)” for “Systems, 2904-MP)”, “example, 0.5” for “example, 2”, “quenched Mca-Arg-Pro-Lys-Pro-Val-Glu-Nval-Trp-Arg-Lys(Dnp)-NH2” for “quenched Mca-Lys-Pro-Leu-Gly-Leu-Dpa(Dnp)-Ala-Arg-NH2”, “Systems, ES-002),” for “Systems, ES-010),”, “the MMP-3” for “the MMP-8”

mouse MMP-12 = target: T3, mouse MMP-12 (Mus musculus, UniProt P34960); assay: In vitro mouse MMP-12 inhibition test (standard or high-sensitivity)
T3 construct: purchased R&D Systems 3467-MP
From the text: as §1
Recombinant mouse MMP-12 (from R&D Systems, 3467-MP) is autocatalytically activated in accordance with the manufacturer's instructions. 1 μl of the test compound to be analysed (as a solution in DMSO, suitable concentrations, for example, 1 nM to 30 μM) is pipetted into 24 μl of activated enzyme (final concentration, for example, 1 nM) in reaction buffer (50 mM Tris/HCl pH 7.5, 10 mM CaCl2, 150 mM NaCl, 0.05% Brij®-35) in a white 384-hole microtiter plate (MTP). The enzymatic reaction is started by adding the intramolecularly quenched Mca-Lys-Pro-Leu-Gly-Leu-Dpa(Dnp)-Ala-Arg-NH2 substrate (final concentration, for example, 5 μM; R&D Systems, ES-010), so as to result in a total test volume of 50 The course of the MMP-12 reaction is measured by measuring the fluorescence intensity (excitation 320 nm, emission 410 nm) over a suitable period of time (for example over 120 min at a temperature of 32° C.).
In this case, an enzyme concentration ten times lower is used (final concentration, for example, 0.1 nM) in order to achieve an elevated test sensitivity. The incubation period chosen for the test is correspondingly longer (for example 16 hours).

mouse MMP-7 = target: T4, mouse MMP-7 (Mus musculus, UniProt Q10738); assay: In vitro mouse MMP-7 inhibition test
T4 construct: purchased R&D Systems 2967-MP
T4 sequence (Q10738 95-264): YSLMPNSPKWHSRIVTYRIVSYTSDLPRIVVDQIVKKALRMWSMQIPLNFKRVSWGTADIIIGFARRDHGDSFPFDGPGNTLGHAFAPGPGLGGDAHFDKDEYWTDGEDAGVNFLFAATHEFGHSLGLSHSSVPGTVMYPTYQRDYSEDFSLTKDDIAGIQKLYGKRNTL
From the text: as §1
as §2, with “mouse MMP-7” for “mouse MMP-8”, “Systems, 2967-MP)” for “Systems, 2904-MP)”, “example, 0.5” for “example, 2”, “the MMP-7” for “the MMP-8”

T2 sequence (P28862 100-477): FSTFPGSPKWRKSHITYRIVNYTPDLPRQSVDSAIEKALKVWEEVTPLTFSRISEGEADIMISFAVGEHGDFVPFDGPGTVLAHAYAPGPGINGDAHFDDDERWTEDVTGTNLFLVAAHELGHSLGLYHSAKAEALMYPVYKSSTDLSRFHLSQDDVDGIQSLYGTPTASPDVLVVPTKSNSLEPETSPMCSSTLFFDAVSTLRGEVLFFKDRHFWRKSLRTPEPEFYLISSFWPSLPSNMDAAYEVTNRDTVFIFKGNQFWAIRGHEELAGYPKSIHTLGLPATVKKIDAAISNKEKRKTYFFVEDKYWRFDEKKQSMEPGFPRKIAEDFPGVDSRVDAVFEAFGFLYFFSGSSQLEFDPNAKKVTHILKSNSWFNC
T1 sequence (O70138 101-465): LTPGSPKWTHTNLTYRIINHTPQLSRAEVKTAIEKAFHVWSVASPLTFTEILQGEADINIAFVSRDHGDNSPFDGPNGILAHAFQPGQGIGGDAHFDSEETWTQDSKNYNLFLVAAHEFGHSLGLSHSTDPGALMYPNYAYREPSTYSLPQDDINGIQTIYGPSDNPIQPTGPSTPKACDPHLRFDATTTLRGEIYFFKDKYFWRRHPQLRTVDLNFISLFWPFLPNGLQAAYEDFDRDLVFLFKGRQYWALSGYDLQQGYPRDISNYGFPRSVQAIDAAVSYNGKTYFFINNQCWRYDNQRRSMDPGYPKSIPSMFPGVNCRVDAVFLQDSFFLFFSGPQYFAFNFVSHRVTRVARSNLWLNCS
T3 sequence (P34960 110-473): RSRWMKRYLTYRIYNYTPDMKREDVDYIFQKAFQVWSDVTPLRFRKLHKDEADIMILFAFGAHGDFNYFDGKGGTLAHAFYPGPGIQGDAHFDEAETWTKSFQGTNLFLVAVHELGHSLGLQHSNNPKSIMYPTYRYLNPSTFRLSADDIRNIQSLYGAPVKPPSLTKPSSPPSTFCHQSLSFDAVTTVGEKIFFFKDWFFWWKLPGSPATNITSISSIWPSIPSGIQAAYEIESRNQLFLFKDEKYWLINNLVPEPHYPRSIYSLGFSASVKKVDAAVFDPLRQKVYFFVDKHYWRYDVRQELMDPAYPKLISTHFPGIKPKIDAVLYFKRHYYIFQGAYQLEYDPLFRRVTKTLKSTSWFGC

Compound: Cc1ccc2nnn(C[C@H]3CC[C@@H](C(=O)c4ccc(OCc5cccc(Cl)c5)cc4)[C@@H]3C(=O)O)c(=O)c2c1 (single isomer, unassigned) [Example 104, (+)-(1RS,2RS,5SR)-2-{4-[(3-Chlorobenzyl)oxy]benzoyl}-5-[(6-methyl-4-oxo-1,2,3-benzotriazin-3(4H)-yl)methyl]cyclopentanecarboxylic acid]
- IC50 (mouse MMP-8): 130 nM
- IC50 (mouse MMP-3): 490 nM
- IC50 (mouse MMP-12): 1.1 nM
- IC50 (mouse MMP-7): 20 nM

Compound: Cc1ccc2nnn(C[C@H]3CC[C@@H](C(=O)c4ccc(OCc5cccc(OC(F)(F)F)c5)cc4)[C@@H]3C(=O)O)c(=O)c2c1 (single isomer, unassigned) [Example 110, (+)-(1RS,2SR,5RS)-2-[(6-Methyl-4-oxo-1,2,3-benzotriazin-3(4H)-yl)methyl]-5-(4-{[3-(trifluoromethoxy)benzyl]oxy}benzoyl)cyclopentanecarboxylic acid]
- IC50 (mouse MMP-8): 420 nM
- IC50 (mouse MMP-3): 2400 nM
- IC50 (mouse MMP-12): 0.72 nM
- IC50 (mouse MMP-7): 220 nM

Compound: Cc1ccc2nnn(C[C@H]3CC[C@@H](C(=O)c4ccc(OCC5CCCCC5)cc4)[C@@H]3C(=O)O)c(=O)c2c1 (single isomer, unassigned) [Example 117, (+)-(1RS,2RS,5SR)-2-[4-(Cyclohexylmethoxy)benzoyl]-5-[(6-methyl-4-oxo-1,2,3-benzotriazin-3(4H)-yl)methyl]cyclopentanecarboxylic acid]
- IC50 (mouse MMP-8): 13 nM
- IC50 (mouse MMP-3): 470 nM
- IC50 (mouse MMP-12): 0.62 nM
- IC50 (mouse MMP-7): 16 nM

Compound: CCCCCCOc1ccc(C(=O)[C@@H]2CC[C@H](Cn3nnc4ccc(C)cc4c3=O)[C@H]2C(=O)O)cc1 (single isomer, unassigned) [Example 121, (+)-(1RS,2RS,5SR)-2-[4-(Hexyloxy)benzoyl]-5-[(6-methyl-4-oxo-1,2,3-benzotriazin-3(4H)-yl)methyl]cyclopentanecarboxylic acid]
- IC50 (mouse MMP-8): 120 nM
- IC50 (mouse MMP-3): 2700 nM
- IC50 (mouse MMP-12): 4 nM
- IC50 (mouse MMP-7): 100 nM

Compound: COC(=O)Nc1cccc(COc2ccc(C(=O)[C@@H]3CC[C@H](Cn4nnc5ccc(C(F)(F)F)cc5c4=O)[C@H]3C(=O)O)cc2)c1 (stereo in doubt) [Example 31, (+)-(1RS,2RS,5SR)-2-[4-({3-[(Methoxycarbonyl)amino]benzyl}oxy)benzoyl]-5-{[4-oxo-6-(trifluoromethyl)-1,2,3-benzotriazin-3(4H)-yl]methyl}cyclopentanecarboxylic acid]
- IC50 (mouse MMP-8): 89 nM
- IC50 (mouse MMP-3): 3900 nM
- IC50 (mouse MMP-12): 6.4 nM
- IC50 (mouse MMP-7): 44 nM

Compound: (+)-(1RS,2RS,5SR)-2-{4-[(3,4-Dichlorobenzyl)oxy]benzoyl}-5-{[4-oxo-6-(trifluoromethyl)-1,2,3-benzotriazin-3(4H)-yl]methyl}cyclopentanecarboxylic acid [Example 28]
- IC50 (mouse MMP-8): 120 nM
- IC50 (mouse MMP-3): 8200 nM
- IC50 (mouse MMP-12): 7.1 nM
- IC50 (mouse MMP-7): 140 nM

Compound: (+)-(1RS,2SR,5RS)-2-{[4-Oxo-6-(trifluoromethyl)-1,2,3-benzotriazin-3(4H)-yl]methyl}-5-{4-[(2-phenylethy)sulphanyl]benzoyl}cyclopentanecarboxylic acid [Example 83]
- IC50 (mouse MMP-8): 1100 nM
- IC50 (mouse MMP-3): 5900 nM
- IC50 (mouse MMP-12): 5.7 nM
- IC50 (mouse MMP-7): 82 nM
